Test results: US20120082736A1, “Small-molecule TNF modulator to reduce the side effects of chemotherapy and radiotherapy” (GeneBlue Corporation, priority 2010, published 2012)
“Also recorded” adds a separate entry of the source.

What was measured:
TNF-α = TNF-α levels in plasma of cisplatin-treated mice (commercial assay kit, eBioscience); format: in vivo; settings: UTL-5g 15, 30, 60 mg/kg ip 30 min before cisplatin 2.5 mg/kg, daily ×5; pooled plasma
Protocol: FIG. 5. Effect of UTL-5g on TNF-α levels in plasma for mice treated with cisplatin. Gp 1, medium control (saline) only; Gp 2, saline followed by cisplatin (2.5 mg/kg) 30 min later; Gp 3, UTL-5g (15 mg/kg) followed by cisplatin 30 min later; Gp 4, UTL-5g (30 mg/kg) followed by cisplatin 30 min later; Gp 5, UTL-5g (60 mg/kg) followed by cisplatin 30 min later. Y axis represents the relative levels of TNF-α assuming 0% for Gp 1 (Control). Level of TNF-α on the figure is based on the average of 2 readings. […]
Using the samples from the same animal study, TNF-α levels in plasma were analyzed. […]

BDF1 mice = experiment: Add-on study: does UTL-5g increase platelet count by itself (Example 3); format: in vivo
Protocol: Gp 1: medium (saline). Gp 2: saline followed by cisplatin (2.5 mg/kg) 30 min later. Gp 3: UTL-5g (15 mg/kg) followed by cisplatin 30 min later. Gp 4: UTL-5g (30 mg/kg) followed by cisplatin (2.5 mg/kg) 30 min later. Gp 5: UTL-5g (60 mg/kg) followed by cisplatin (2.5 mg/kg) 30 min later. Gp 6: amifostine (200 mg/kg) followed by cisplatin (2.5 mg/kg) 30 min later. Gp 7: saline followed by cisplatin (5 mg/kg) 30 min later. Gp 8: UTL-5g (60 mg/kg) followed by medium (saline) 30 min later. Gp 1-Gp 6 were daily ×5, but Gp 7 was by single dose on day 0 only. StDev is shown for each Gp (n=5 for each group except n=4 for Gp 7). * P<0.05, ** p<0.005 vs. medium control by Student's t-t (two-tailed).
To further investigate whether UTL-5g by itself would increase platelet count, the following small add-on study was conducted: • Gp 1: medium (saline) followed by medium (saline) 30 min later (same as Gp 1 before) • Gp 2: medium (saline) followed by cisplatin (2.5 mg/kg) 30 min later (same as Gp 2 before) • Gp 5: UTL-5g (60 mg/kg) followed by cisplatin (2.5 mg/kg) 30 min later (Same as Gp 5 before) • Gp 8: UTL-5g alone (60 mg/kg) followed by medium (saline) 30 min later (New Gp)

[1] = tested on: human colon cancer cells (HCT-15); experiment: Effect of UTL-5g pretreatment on antitumor effect of cisplatin, HCT-15 tumors in SCID mice (Example 4); format: in vivo
Protocol: FIG. 7. Effect of UTL-5g pre-treatment on the antitumor effect of cisplatin Group 1, saline, daily ×5 (control); Group 2, cisplatin (2.5 mg/kg) in saline, daily ×5; Group 3, UTL-5g (60 mg/kg) followed by cisplatin (2.5 mg/kg) 30 min later, daily ×5. […] Gp: Group
In order to qualify UTL-5g as a chemoprotective agent, a therapeutic assessment was conducted to evaluate the effect of UTL-5g on the efficacy of cisplatin. Briefly, 25 SCID mice were randomly divided into 5 groups as below. • Gp 1: Saline daily ×5 (control) • Gp 2: Cisplatin 0.2 mg/mL (2.5 mg/kg), daily ×5 • Gp 3: UTL-5g (60 mg/kg) followed by cisplatin (2.5 mg/kg) 30 min later, daily ×5 • Gp 4: Cisplatin 0.4 mg/mL ([…]) in saline, day 1 only • Gp 5: UTL-5g (60 mg/kg) followed by cisplatin (5 mg/kg) 30 min later, day 1 only
Cisplatin was dissolved in saline. UTL-5g was prepared in DMSO/Cremophor/propylene glycol/saline as described in previous section. All injections were ip and the injection volume was 0.25 mL. Three days before treatment (Day −2), human colon cancer cells (HCT-15) were injected subcutaneously and bilaterally (1×10^6 cells per site per mouse) in each SCID mouse in all groups and tumor sizes were measured by a caliper every 2-3 days and the animals were sacrificed when tumor reached 1,200 mm^3.
The % T/C value is used here as the end-point. […]

mice = settings: cited from earlier work

Cc1cc(C(=O)Nc2ccc(Cl)cc2Cl)no1 [UTL-5g]
TNF-α in plasma, effect of pretreatment (TNF-α): lowered elevated TNF-α in plasma in a dose-dependent manner; also recorded: lowered the elevated levels of blood TNF-α induced by cisplatin in a dose dependent manner
platelet count (BDF1 mice; UTL-5g 60 mg/kg followed 30 min later by cisplatin 2.5 mg/kg or by saline): significantly increased platelet count
WBC, protective effect (BDF1 mice; UTL-5g 60 mg/kg followed by cisplatin 2.5 mg/kg or saline): no significant protective effect
platelet production, UTL-5g by itself (BDF1 mice; UTL-5g alone 60 mg/kg followed by saline, mice not treated by cisplatin): stimulated the production of platelets; also recorded: increased platelet counts
effect on efficacy of cisplatin ([1]; UTL-5g 60 mg/kg 30 min before cisplatin 2.5 mg/kg, daily ×5 (Gp 3 vs Gp 2)): increased the efficacy of cisplatin; also recorded: did not have tumor-protective effect and actually increased the efficacy of cisplatin
enhancement of efficacy of cisplatin ([1]; UTL-5g 60 mg/kg 30 min before cisplatin 5 mg/kg, single dose (Gp 5 vs Gp 4)): not observed
LD50 (acute toxicity) (mice): > 200 mg/kg
